Here are results for 14 compounds from patent publication US9670227B2, “Thienopyrimidine derivatives, a process for their preparation and pharmaceutical compositions containing them” (LES LABORATOIRES SERVIER, priority 2013, dated 2017).

Like-named read-outs stand apart in the source and are kept apart here.

The target of one experiment is Mcl-1 protein (UniProtKB primary accession number: Q07820) (Homo sapiens, UniProt Q07820). In words: Inhibition of Mcl-1 by fluorescence polarisation, Method 1. It counts as binding. The conditions noted are these: read-out: IC50 (M) Mcl-1 FP. The method in brief:
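FP competition, 11-point compound titration in 5% final DMSO; protein and labelled probe at 5 nM and 1 nM final in HEPES/NaCl/Tween 20 buffer, pH 7.4.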
For orientation: Fluorescence polarisation rises when a labelled molecule tumbles more slowly, as on binding a larger partner.

Experiment [1] deals with H929 multiple myeloma tumour line. Description: In vitro cytotoxicity, Microculture Tetrazolium Assay. It counts as cell-based. The conditions noted are these: Homo sapiens, NCI-H929, 48 h, H929 cells, 48 hours exposure, read-out: IC50 (μM) MTT H929. Here is the method: The cytotoxicity studies were carried out on the H929 multiple myeloma tumour line.
The cells are distributed onto microplates and exposed to the test compounds for 48 hours.

The mark [2] stands for this setting: fluorescence polarisation test, Method 2 values are underlined in the patent (underlining not visible here).
Where [3] appears, read: fluorescence polarisation, Method 1, or Method 2.

Mcl-1 protein, sequence (Q07820 whole entry): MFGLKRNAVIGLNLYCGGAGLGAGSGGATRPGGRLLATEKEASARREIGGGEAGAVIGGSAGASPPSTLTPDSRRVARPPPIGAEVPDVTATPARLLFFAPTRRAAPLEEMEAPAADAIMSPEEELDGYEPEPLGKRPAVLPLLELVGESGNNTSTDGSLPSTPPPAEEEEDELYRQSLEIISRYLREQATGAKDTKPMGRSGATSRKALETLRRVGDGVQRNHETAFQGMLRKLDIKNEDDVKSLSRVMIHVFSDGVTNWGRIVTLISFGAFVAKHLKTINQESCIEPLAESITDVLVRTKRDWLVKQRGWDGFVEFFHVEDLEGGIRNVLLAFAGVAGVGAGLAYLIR

In general, IC50 refers to the midpoint of a concentration-inhibition curve. With `Cc1c(-c2c(-c3ccc(Cl)o3)sc3ncnc(OC(Cc4ccccc4OCc4ccnc(N5CCOCC5)n4)C(=O)O)c23)ccc(OCCN2CCN(C)CC2)c1Cl` [Example 368, (2R)-2-{[6-(5-chlorofuran-2-yl)-(5Sa)-5-{3-chloro-2-methyl-4-[2-(4-methylpiperazin-1-yl)ethoxy]phenyl}thieno[2,3-d]pyrimidin-4-yl]oxy}-3-(2-{[2-(morpholin-4-yl)pyrimidin-4-yl]methoxy}phenyl)propanoic acid], the IC50 on Mcl-1 protein (setting [2]) came to 1.4e-08 M; in experiment [1] (MTT), 0.005 µM.

On to `Cc1c(-c2c(-c3ccco3)sc3ncnc(OC(Cc4ccccc4OCc4ccnc(Cl)n4)C(=O)O)c23)ccc(OCCN2CCN(C)CC2)c1Cl` [Example 249, (2R)-2-{[(5Sa)-5-{3-chloro-2-methyl-4-[2-(4-methylpiperazin-1-yl)ethoxy]phenyl}-6-(furan-2-yl)thieno[2,3-d]pyrimidin-4-yl]oxy}-3-{2-[(2-chloropyrimidin-4-yl)methoxy]phenyl}propanoic acid], for which the IC50 on Mcl-1 protein (setting [2]) was determined as 4e-09 M; in experiment [1] (MTT), 0.023 µM.

Turning to `CCNC(=O)NCCCOc1ccc(-c2c(CC)sc3ncnc(OC(Cc4ccccc4)C(=O)O)c23)c(C)c1Cl` [Example 404, (2R)-2-{[(5Sa)-5-(3-chloro-4-{3-[(ethylcarbamoyl)amino]propoxy}-2-methylphenyl)-6-ethylthieno[2,3-d]pyrimidin-4-yl]oxy}-3-phenylpropanoic acid], the IC50 at Mcl-1 protein (setting [3]) came out at 5.7e-08 M; in experiment [1] (MTT), 21.6 µM.

Take `Cc1c(-c2c(-c3ccc(F)o3)sc3ncnc(OC(Cc4ccccc4OCC(=O)NC4CCCC4)C(=O)O)c23)ccc(OCCN2CCN(C)CC2)c1Cl` [Example 152, (2R)-2-{[(5Sa)-5-{3-chloro-2-methyl-4-[2-(4-methylpiperazin-1-yl)ethoxy]phenyl}-6-(5-fluorofuran-2-yl)thieno[2,3-d]pyrimidin-4-yl]oxy}-3-{2-[2-(cyclopentylamino)-2-oxoethoxy]phenyl}propanoic acid]: the IC50 stood at 9.9e-09 M at Mcl-1 protein (setting [2]) and 0.19 µM in experiment [1] (MTT).

`Cc1c(-c2c(-c3ccc(F)cc3)sc3ncnc(OC(Cc4ccccc4OCc4ccnn4C(C)C)C(=O)O)c23)ccc(OCCN(C)C)c1Cl` [Example 752, (2R)-2-{[(5Sa)-5-{3-chloro-4-[2-(dimethylamino)ethoxy]-2-methylphenyl}-6-(4-fluorophenyl)thieno[2,3-d]pyrimidin-4-yl]oxy}-3-(2-{[1-(propan-2-yl)-1H-pyrazol-5-yl]methoxy}phenyl)propanoic acid]: the IC50 worked out at 5.5e-09 M at Mcl-1 protein (setting [3]) and 0.084 µM in experiment [1] (MTT).

As to `Cc1c(-c2c(-c3ccc(F)cc3)sc3ncnc(OC(Cc4ccccc4OCc4ccncn4)C(=O)O)c23)ccc(OCCN2CCN(C)CC2)c1Cl` [Example 68, (2R)-2-{[(5Sa)-5-{3-chloro-2-methyl-4-[2-(4-methylpiperazin-1-yl)ethoxy]phenyl}-6-(4-fluorophenyl)thieno[2,3-d]pyrimidin-4-yl]oxy}-3-[2-(pyrimidin-4-ylmethoxy)phenyl]propanoic acid], the IC50 at Mcl-1 protein (setting [2]) came to 9.1e-09 M; in experiment [1] (MTT), 0.035 µM.

Turning to `COc1ccccc1-c1nccc(COc2ccccc2CC(Oc2ncnc3sc(-c4ccc(F)cc4)c(-c4ccc(OCCN5CCN(C)CC5)c(Cl)c4C)c23)C(=O)Oc2ccc3c(c2)CCC3)n1` [Example 809, 2,3-dihydro-1H-inden-5-yl (2R)-2-{[(5Sa)-5-{3-chloro-2-methyl-4-[2-(4-methylpiperazin-1-yl)ethoxy]phenyl}-6-(4-fluorophenyl)thieno[2,3-d]pyrimidin-4-yl]oxy}-3-(2-{[2-(2-methoxyphenyl)pyrimidin-4-yl]methoxy}phenyl)propanoate], the IC50 on Mcl-1 protein (fluorescence polarisation test, Method 1, or Method 2 where the value is underlined (underlining not visible)) is 6.91e-07 M; in experiment [1] (cell viability), 0.047 µM.

Turning to `CCN1CCN(CCOc2ccc(-c3c(-c4ccco4)sc4ncnc(OC(Cc5ccccc5OCc5ccnc(OC)n5)C(=O)O)c34)c(C)c2Cl)CC1` [Example 670, (2R)-2-{[(5Sa)-5-{3-chloro-4-[2-(4-ethylpiperazin-1-yl)ethoxy]-2-methylphenyl}-6-(furan-2-yl)thieno[2,3-d]pyrimidin-4-yl]oxy}-3-{2-[(2-methoxypyrimidin-4-yl)methoxy]phenyl}propanoic acid], the IC50 on Mcl-1 protein (setting [3]) turned out to be 3.2e-09 M; in experiment [1] (MTT) it was 0.027 µM.

For `Cc1c(-c2c(-c3ccc(F)cc3)sc3ncnc(OC(Cc4ccccc4OCC4CCCO4)C(=O)O)c23)ccc(OCCN(C)C)c1Cl` [Example 126, (2R)-2-{[(5Sa)-5-{3-chloro-4-[2-(dimethylamino)ethoxy]-2-methylphenyl}-6-(4-fluorophenyl)thieno[2,3-d]pyrimidin-4-yl]oxy}-3-{2-[(2R)-tetrahydrofuran-2-ylmethoxy]phenyl}propanoic acid], the IC50 at Mcl-1 protein (setting [2]) is 1.4e-08 M; in experiment [1] (MTT), 0.7 µM.

Regarding `CCCn1nccc1COc1ccccc1CC(Oc1ncnc2sc(-c3ccc(F)o3)c(-c3ccc(OCCN4CCN(C)CC4)c(Cl)c3C)c12)C(=O)O` [Example 187, (2R)-2-{[(5Sa)-5-{3-chloro-2-methyl-4-[2-(4-methylpiperazin-1-yl)ethoxy]phenyl}-6-(5-fluorofuran-2-yl)thieno[2,3-d]pyrimidin-4-yl]oxy}-3-{2-[(1-propyl-1H-pyrazol-5-yl)methoxy]phenyl}propanoic acid], the IC50 at Mcl-1 protein (setting [2]) worked out at 2.8e-09 M; in experiment [1] (MTT) it was 0.02 µM.

In the case of `Cc1c(-c2c(-c3ccco3)sc3ncnc(OC(Cc4ccccc4OCc4ccnc(N5CCOCC5)n4)C(=O)O)c23)ccc(OCCN2CCN(C)CC2)c1Cl` [Example 252, (2R)-2-{[(5Sa)-5-{3-chloro-2-methyl-4-[2-(4-methylpiperazin-1-yl)ethoxy]phenyl}-6-(furan-2-yl)thieno[2,3-d]pyrimidin-4-yl]oxy}-3-(2-{[2-(morpholin-4-yl)pyrimidin-4-yl]methoxy}phenyl)propanoic acid], the IC50 turned out to be 4.2e-09 M on Mcl-1 protein (setting [2]) and 0.009 µM in experiment [1] (MTT).

`CCn1nccc1COc1ccccc1CC(Oc1ncnc2sc(-c3ccc(Cl)o3)c(-c3ccc(OCCN4CCN(C)CC4)c(Cl)c3C)c12)C(=O)O` [Example 372, (2R)-2-{[6-(5-chlorofuran-2-yl)-(5Sa)-5-{3-chloro-2-methyl-4-[2-(4-methylpiperazin-1-yl)ethoxy]phenyl}thieno[2,3-d]pyrimidin-4-yl]oxy}-3-{2-[(1-ethyl-1H-pyrazol-5-yl)methoxy]phenyl}propanoic acid]: the half-maximal inhibitory concentration (IC50) at Mcl-1 protein (setting [2]) stood at 9.7e-09 M; in experiment [1] (MTT), 0.018 µM.

For `CCc1sc2ncnc(OC(Cc3ccccc3)C(=O)O)c2c1-c1ccc(OCCN2CCC(O)CC2)c(Cl)c1C` [Example 413, (2R)-2-[((5Sa)-5-{3-chloro-4-[2-(4-hydroxypiperidin-1-yl)ethoxy]-2-methylphenyl}-6-ethylthieno[2,3-d]pyrimidin-4-yl)oxy]-3-phenylpropanoic acid], the IC50 on Mcl-1 protein (setting [3]) is 1.3e-08 M; in experiment [1] (MTT), 15.8 µM.

With `COc1ccccc1-c1nccc(COc2ccccc2CC(Oc2ncnc3sc(-c4ccc(OCc5ccccc5C)cc4)c(-c4ccc(OCCN5CCN(C)CC5)c(Cl)c4C)c23)C(=O)O)n1` [Example 767, (2R)-2-[((5Sa)-5-{3-chloro-2-methyl-4-[2-(4-methylpiperazin-1-yl)ethoxy]phenyl}-6-{4-[(2-methylbenzyl)oxy]phenyl}thieno[2,3-d]pyrimidin-4-yl)oxy]-3-(2-{[2-(2-methoxyphenyl)pyrimidin-4-yl]methoxy}phenyl)propanoic acid], the values for the IC50 (at Mcl-1 protein (setting [3]); in experiment [1] (MTT)) were 1.73e-09 M and 0.05 µM, respectively.
